One molecule from patent US20230293614A1, “COMPOSITIONS AND METHODS OF TREATING UPS-ASSOCIATED DISEASES” (Board of Supervisors of Louisiana State University and …, priority 2020, published 2023) can be followed below.

Assay [1] has as its system deubiquitinating enzymes (DUBs). The assay is described as follows: DUB activity (Z-LRGG-AMC cleavage) in lysates of treated MM.1S cells. Particulars: for Vmax / effect on DUB activity vs DMSO control / Km / n (Hill coefficient): 16 h. It counts as cell-based. The protocol:
OPM2 cells were maintained in RPMI 1640 media supplemented with 12% FBS, 21.8 mM glucose, 8.6 mM HEPES (pH 7.4) and 1.0 mM sodium pyruvate. MM.1S cell line were maintained in RPMI 1640 media supplemented with 10% FBS. The cells were all cultured in T175 flasks (VWR, Radnor, Pa.). All media components were from Corning, Atlanta, Ga. unless otherwise noted. To test the effect of the ethanolic extract and bioactive compounds on DUB activity, cells were exposed to a 16-h pretreatment with 10 μg/mL of PMI-5011 and 1, 10, 30 μg/mL concentrations of DMC-1, DMC-2, KOE, and davidigenin before lysing the cells for experimentation. All compounds were reconstituted in DMSO to obtain stock concentrations, which was further diluted in culture media to obtain the desired experimental concentrations. For vehicle control, a subpopulation of cells was treated with pure DMSO diluted in a similar manner for the same duration. Upon treatment, cell lysates (both OPM2 and MM.1S) were generated by harvesting 1×10^6 cells/mL, followed by washing 2× and pelleting in phosphate buffered saline (PBS; 137 mM NaCl, 10 mM Na2HPO4, […], and 1.75 mM KH2PO4 at pH 7.4). The cell pellet was re-suspended in an approximately equivalent volume of M-PER to the volume of the cell pellet (1000-2000 μL) then vortexed for 10 min at room temperature. Following this, the mixture was centrifuged at 14,000×g for 15 min at 4° C. and the supernatant transferred to a centrifuge tube and stored on ice until use. Total protein concentration was determined using a NanoDrop 2000c (Thermo Scientific, Madison, Wis.).
The commercial DUB reporter, Z-LRGG-AMC (substrate) (SEQ ID NO: 1) was reconstituted in DMSO to obtain a final stock concentration of 1.44 mM. This stock reporter was diluted as needed in assay buffer (50 mM HEPES, pH 7.4, 150 mM NaCl, 2 mM DTT, and 0.02% Tween-20) supplemented with 4 mg/mL cell lysates (source of DUBs) to reach the desired reporter concentration with a final volume of 100 μL in a 96-well plate. OPM2 and MM.1S cell lysates from different treatments (10 μg/mL of PMI-5011; 1, 10, and 30 μg/mL of DMC-1, DMC-2, KOE, davidigenin and control vehicle DMSO) and C2C12 cell lysates were used to interrogate the effect of the ethanolic extract and selected bioactive compounds on DUB activity. Reporter only and lysates only (noise/background) samples were included in the 96-well plate to confirm that the rates observed were due to DUB-mediated hydrolysis initiated by the cell lysates. The 96-well plate was maintained at a temperature of 30° C. in the dark for the duration of the experiment. The fluorescence signals emitted as a result of DUB-mediated cleavage of AMC (λex=355 nm and λem=460 nm) were quantified using a Wallac 1420 VICTOR2 multilabel HTS counter fluorometry (Perkin Elmer (Waltham, Mass.). Readings were collected every 30 min for 6 h. The normalized signals were obtained by comparing the treatment with noise and background fluorescence values which were then statistically analyzed for their significance. Each data point represents triplicate data points from duplicate experiments. A calibration curve was generated for known concentrations of AMC to correlate the fluorescence signal (AU) to concentration (μM). The approximate concentration of free fluorophore was used to calculate reaction rates (μM/min) for each substrate concentration using linear regression analysis.
All data visualization, interpretation and curve-fittings were performed using Origin Pro (OriginLab, Northampton, MA) while statistical analyses of experimental data were carried out using SAS 9.4 (SAS Solutions). The analyses of enzyme-substrate reactions in all cell lysates started with scatter plotting the fluorometry signals (p,M) measured for each substrate concentration against time (min). Fluorescence signals measured for each substrate concentration remained stable during the first 30 min, indicating there was a 30-minute lag period before reaction initiation. […]

A further assay relates to DUB. The assay is described as follows: Experiment 3: DUB reporter Z-LRGG-AMC with control, 5011 and DMC-2 treated lysates. It counts as biochemical. How it is done:
Peptide used was the commercial DUB reporter [Z-LRGG-AMC (SEQ ID NO: 1)] at multiple concentrations [50-150 uM]. 1100 uL protein at 6 mg/mL for each set was given. Final protein concentration in micro-wells was 4 mg/mL. Peptide was incubated with control, 5011 treated, 1 ug/mL DMC-2, 10 ug/mL DMC-2, and 30 ug/mL DMC-2 in DUB assay buffer. Fluorometric readings were taken at different time points in plate reader. Measured at [Em 460/Ex 355]. Fluorescent signals were converted to μM/min using a calibration curve for the AMC fluorophore. Rates were plotted vs. substrate concentration (Z-LRGG-AMC peptide (SEQ ID NO: 1)) (FIG. 10). […] The curves are not perfect logarithmic curves but we can observe the trend. The results with different concentrations of DMC-2 were further plotted. When compared with control: the 5011 treatment enhances DUB activity, DMC-2 being the active part of 5011, also enhances the DUB activity. From FIG. 11, the lowest concentration of DMC2-1 μg/mL has most effect on DUB activity when compared to 30 μg/mL. Without wishing to be bound by theory, some data fluctuation with DMC-2 can occur in the 1 μg/mL range.

With `COc1ccc(CCC(=O)c2ccc(O)cc2O)cc1` [DMC-2, 1-(2,4-dihydroxyphenyl)-3-(4-methoxyphenyl)propan-1-one], the Vmax (usually the rate approached at saturating substrate) in assay [1] (1 μg/mL) came out at 22.70 ± 1.71 µM/min; in assay [1] (10 μg/mL) it was 18.13 ± 0.14 µM/min; in assay [1] (30 μg/mL), 18.12 ± 7.21 µM/min; in assay [1] (Table 2, 1 μg/mL), 0.0227 µM/min; in assay [1] (Table 2, 10 μg/mL) it was 0.0181 µM/min; in assay [1] (Table 2, 30 μg/mL) it was 0.0181 µM/min. The “effect on DUB activity vs DMSO control” value in assay [1] (1 μg/mL), in assay [1] (10 μg/mL) and in assay [1] (30 μg/mL) was “significantly enhanced” in each case. In addition, the “effect of increasing concentration on DUB activity (normalized Vmax)” value in assay [1] (1, 10, 30 μg/mL, regression fit) is “negative linear effect”. For the same molecule, the Km (as a rule, the substrate concentration at which the rate is half of its maximum) in assay [1] (Table 2, 1 μg/mL) came out at 44.8 µM; in assay [1] (Table 2, 10 μg/mL), 39.4 µM; in assay [1] (Table 2, 30 μg/mL), 42.2 µM. Besides, the “n (Hill coefficient)” value is recorded as about 1.00 in assay [1] (Table 2, 1 μg/mL); 1.68 in assay [1] (Table 2, 10 μg/mL); 1.06 in assay [1] (Table 2, 30 μg/mL). In the assay with DUB (compared to 30 μg/mL), the “concentration with most effect on DUB activity” value was determined as 1 µg/mL. Also, the “effect on DUB activity vs control” value in the assay on DUB (treated lysates 4 mg/mL, DMC-2 at 1, 10, 30 ug/mL) is listed as “enhances”.
